Reference: PubChem BioAssay AID330 (DTP/NCI, 2004)
Where “and” joins values, the source holds several entries; their conditions need not be identical. Equal entries are not always repeated. Inconclusive results and toxic doses are left out. The calls were made as follows: active = survival T/C of 150% or more; inactive = T/C below 125% in these data.

Tested on: P388 leukemia ip, CD2F1 mice, survival T/C
Assay: NCI In Vivo Anticancer Drug Screen. Data for tumor model P388 Leukemia (intraperitoneal) in CD2F1 (CDF1) mice
Conditions: endpoint: median survival time, higher = longer survival
Method in brief: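 Mice carrying the transplanted tumor received test compound or vehicle. Survival was recorded in each group, and the value is the treated-group measurement divided by that of the vehicle-treated control group.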

[1] = dose: 12.5 mg/kg/injection, schedule: Q01DX009 (ip), vehicle: saline
[2] = dose: 25.0 mg/kg/injection, schedule: Q01DX009 (ip), vehicle: saline
[3] = dose: 60.0 mg/kg/injection, schedule: Q01DX005 (ip), vehicle: Klucel (hydroxypropylcellulose) (HPC)
[4] = dose: 120.0 mg/kg/injection, schedule: Q01DX005 (ip), vehicle: Klucel (hydroxypropylcellulose) (HPC)
[5] = dose: 240.0 mg/kg/injection, schedule: Q01DX005 (ip), vehicle: Klucel (hydroxypropylcellulose) (HPC)
[6] = dose: 50.0 mg/kg/injection, schedule: Q01DX009 (ip), vehicle: saline with Tween-80
[7] = dose: 100.0 mg/kg/injection, schedule: Q01DX009 (ip), vehicle: saline with Tween-80
[8] = dose: 200.0 mg/kg/injection, schedule: Q01DX009 (ip), vehicle: saline with Tween-80
[9] = dose: 400.0 mg/kg/injection, schedule: Q01DX009 (ip), vehicle: saline with Tween-80
[10] = dose: 50.0 mg/kg/injection, schedule: Q01DX005 (ip), vehicle: Klucel (hydroxypropylcellulose) (HPC)
[11] = dose: 50.0 mg/kg/injection, schedule: Q01DX005 (ip), vehicle: saline with Tween-80
[12] = dose: 100.0 mg/kg/injection, schedule: Q01DX005 (ip), vehicle: saline with Tween-80
[13] = dose: 200.0 mg/kg/injection, schedule: Q01DX005 (ip), vehicle: saline with Tween-80
[14] = dose: 50.0 mg/kg/injection, schedule: Q01DX009 (ip), vehicle: Klucel (hydroxypropylcellulose) (HPC)
[15] = dose: 50.0 mg/kg/injection, schedule: Q01DX009 (ip), vehicle: saline
[16] = dose: 100.0 mg/kg/injection, schedule: Q01DX009 (ip), vehicle: saline
[17] = dose: 200.0 mg/kg/injection, schedule: Q01DX009 (ip), vehicle: saline

Measured: T/C

Cc1ccc2c(c1)C=CC(C#N)N2C(=O)Oc1ccccc1 (stereo unspecified)
inactive: dose: 6.25 mg/kg/injection, schedule: Q01DX009 (ip), vehicle: saline 99 % of control and 101 % of control | [1] 98 % of control | [2] 93 % of control and 96 % of control

CC(=O)OCCCn1nc(COC(N)=O)c2c1CC(C)CC2=O (stereo unspecified)
inactive: [3] 101 % of control | [4] 99 % of control | [5] 100 % of control

NC(=S)N/N=C/C=C/c1ccccc1
inactive: dose: 25.0 mg/kg/injection, schedule: Q04DX002 (ip), vehicle: Klucel (hydroxypropylcellulose) (HPC) 96 % of control | dose: 50.0 mg/kg/injection, schedule: Q04DX002 (ip), vehicle: Klucel (hydroxypropylcellulose) (HPC) 105 % of control | dose: 100.0 mg/kg/injection, schedule: Q04DX002 (ip), vehicle: Klucel (hydroxypropylcellulose) (HPC) 101 % of control

[Cl][Sn]1([Cl])[CH2]CC[CH2][Sn]([Cl])([Cl])[CH2]CC[CH2][Sn]([Cl])([Cl])[CH2]CC[CH2][Sn]([Cl])([Cl])[CH2]CC[CH2]1
inactive: dose: 50.0 mg/kg/injection, schedule: Q01DX005 (ip), vehicle: saline 93 % of control | dose: 100.0 mg/kg/injection, schedule: Q01DX005 (ip), vehicle: saline 92 % of control | dose: 200.0 mg/kg/injection, schedule: Q01DX005 (ip), vehicle: saline 102 % of control

CC(=O)OC1OC(COS(=O)(=O)c2ccc(C)cc2)C(OC(C)=O)C(OC(C)=O)C1OC(C)=O (stereo unspecified)
inactive: dose: 12.5 mg/kg/injection, schedule: Q01DX009 (ip), vehicle: other 93 % of control | dose: 25.0 mg/kg/injection, schedule: Q01DX009 (ip), vehicle: other 90 % of control | dose: 100.0 mg/kg/injection, schedule: Q01DX009 (ip), vehicle: other 87 % of control | dose: 200.0 mg/kg/injection, schedule: Q01DX009 (ip), vehicle: other 92 % of control

O=[N+]([O-])c1ccc(N2CCN(c3ccccc3)CC2)c2nonc12
inactive: dose: 50.0 mg/kg/injection, schedule: Q01DX009 (ip), vehicle: suspension in saline 100 % of control | dose: 100.0 mg/kg/injection, schedule: Q01DX009 (ip), vehicle: suspension in saline 99 % of control | dose: 200.0 mg/kg/injection, schedule: Q01DX009 (ip), vehicle: suspension in saline 99 % of control and 100 % of control

CCOC(=O)c1cc([N+](=O)[O-])c[nH]1
inactive: [6] 97 % of control | [7] 96 % of control | [8] 95 % of control | [9] 89 % of control

Cc1ccc2c(c1)nc(Cl)n2Cc1ccccc1
inactive: [10] 100 % of control | dose: 100.0 mg/kg/injection, schedule: Q01DX005 (ip), vehicle: Klucel (hydroxypropylcellulose) (HPC) 102 % of control | dose: 200.0 mg/kg/injection, schedule: Q01DX005 (ip), vehicle: Klucel (hydroxypropylcellulose) (HPC) 102 % of control

Cc1c(C#N)c(N)nc2c(C(N)=O)nsc12
inactive: dose: 6.25 mg/kg/injection, schedule: Q01DX005 (ip), vehicle: Klucel (hydroxypropylcellulose) (HPC) 98 % of control | dose: 12.5 mg/kg/injection, schedule: Q01DX005 (ip), vehicle: Klucel (hydroxypropylcellulose) (HPC) 102 % of control | dose: 25.0 mg/kg/injection, schedule: Q01DX005 (ip), vehicle: Klucel (hydroxypropylcellulose) (HPC) 95 % of control | [10] 91 % of control

Ic1ccc(N=Cc2cccs2)cc1
inactive: [6] 106 % of control | [7] 108 % of control | [8] 123 % of control | [9] 115 % of control

CCN(CC)C(=O)c1c(C(=O)OC)c(C)n(NC(N)=O)c1C
inactive: [11] 105 % of control | [12] 107 % of control | [13] 108 % of control

C/C=C(\C)[C@H](O)C(COCc1ccccc1)NS(=O)(=O)c1ccc(C)cc1 (stereo partly specified)
inactive: [3] 100 % of control | [4] 100 % of control | [5] 92 % of control

Cc1ccc(S(=O)(=O)NC(C)(COS(=O)(=O)c2ccc(C)cc2)COS(=O)(=O)c2ccc(C)cc2)cc1
inactive: [14] 95 % of control | dose: 100.0 mg/kg/injection, schedule: Q01DX009 (ip), vehicle: Klucel (hydroxypropylcellulose) (HPC) 96 % of control | dose: 200.0 mg/kg/injection, schedule: Q01DX009 (ip), vehicle: Klucel (hydroxypropylcellulose) (HPC) 96 % of control

COc1c(OCC(O)CN2CCOCC2)c2c(C)coc2c2ccoc12 (stereo unspecified)
inactive: [3] 100 % of control | [4] 105 % of control

CCN(CC)CCNc1n[nH]c(=O)c2ccccc12
inactive: [6] 104 % of control | [7] 101 % of control | [8] 95 % of control

Cc1nnc2c(c(=O)n(C)c(=O)n2C)[n+]1[O-]
inactive: dose: 12.5 mg/kg/injection, schedule: Q01DX001 (ip), vehicle: saline 105 % of control | dose: 25.0 mg/kg/injection, schedule: Q01DX001 (ip), vehicle: saline 109 % of control | dose: 50.0 mg/kg/injection, schedule: Q01DX001 (ip), vehicle: saline 106 % of control

c1coc(CNC2=NCCCCC2)c1
inactive: [1] 108 % of control | [2] 108 % of control | [15] 102 % of control

CCN(CCCO)CCCO
inactive: [15] 102 % of control | [16] 93 % of control | [17] 95 % of control

CCCN(C)N=Nc1ccccc1C(=O)O
inactive: dose: 3.12 mg/kg/injection, schedule: Q01DX009 (ip), vehicle: Klucel (hydroxypropylcellulose) (HPC) 111 % of control | dose: 6.25 mg/kg/injection, schedule: Q01DX009 (ip), vehicle: Klucel (hydroxypropylcellulose) (HPC) 91 % of control | dose: 12.5 mg/kg/injection, schedule: Q01DX009 (ip), vehicle: Klucel (hydroxypropylcellulose) (HPC) 110 % of control | dose: 25.0 mg/kg/injection, schedule: Q01DX009 (ip), vehicle: Klucel (hydroxypropylcellulose) (HPC) 110 % of control | [14] 105 % of control

CC(NC(=O)OC(C)(C)C)C(=O)ON1C(=O)CCC1=O (stereo unspecified)
inactive: [11] 108 % of control | [12] 114 % of control | [13] 104 % of control

CSC(=S)NN=C(c1ccccc1)c1ccccc1
inactive: dose: 0.78 mg/kg/injection, schedule: Q01DX009 (ip), vehicle: saline 102 % of control | dose: 1.56 mg/kg/injection, schedule: Q01DX009 (ip), vehicle: saline 102 % of control | dose: 3.12 mg/kg/injection, schedule: Q01DX009 (ip), vehicle: saline 100 % of control | [16] 113 % of control | [17] 96 % of control

COC(=O)C(C)NC(=O)c1c2nc3c(C(=O)NC(C)C(=O)OC)ccc(C)c3oc-2c(C)c(=O)c1N (stereo unspecified)
inactive: dose: 3.12 mg/kg/injection, schedule: Q01DX005 (ip), vehicle: distilled water + Tween-80 100 % of control | dose: 3.12 mg/kg/injection, schedule: Q01DX005 (ip), vehicle: saline with Tween-80 98 % of control | dose: 6.25 mg/kg/injection, schedule: Q01DX005 (ip), vehicle: distilled water + Tween-80 100 % of control and 102 % of control | dose: 6.25 mg/kg/injection, schedule: Q01DX005 (ip), vehicle: saline with Tween-80 97 % of control | dose: 12.5 mg/kg/injection, schedule: Q01DX005 (ip), vehicle: distilled water + Tween-80 96 % of control | dose: 12.5 mg/kg/injection, schedule: Q01DX005 (ip), vehicle: saline with Tween-80 87 % of control and 92 % of control | dose: 25.0 mg/kg/injection, schedule: Q01DX005 (ip), vehicle: distilled water + Tween-80 89 % of control and 94 % of control | dose: 50.0 mg/kg/injection, schedule: Q01DX005 (ip), vehicle: distilled water + Tween-80 90 % of control | [11] 89 % of control | [12] 89 % of control | [13] 92 % of control
